Source: patent US20060275289A1, “Preventive or remedy for inflammatory bowel diseases containing anti-cd81 antibody as the active ingredient” (priority 2003, published 2006)

Assays:
intracellular IFN-γ = format: cell-based, mouse; conditions: SEB 1 μg/ml
[1] = test system: IBD-pathogenic cells (mesenteric lymph node cells and spleen cells of TNBS colitis mouse stimulated with Staphylococcal enterotoxin B); format: cell-based
normal mice = conditions: cells incubated 48 hours with 0.2 μg/ml SEB and 10 μM of compound A (condition C); cited from earlier work
[2] = test system: TNBS-induced colitis mouse; assay: TNBS (2,4,6-trinitrobenzenesulfonic acid)-induced mouse colitis model; format: in vivo; conditions: antibody 0.1 mg/head i.p. on division day and day 2, SSZ 200 mg/kg orally once daily
Experimental: 0.5 g of egg albumin (OVA: manufactured by Sigma) and 0.5 g of K2CO3 (manufactured by Nacalai Tesque) were dissolved in 25 ml of distilled water for injection (OVA solution). 0.5 g of 2,4,6-trinitrobenzenesulfonic acid (TNBS: manufactured by Nacalai Tesque) was dissolved in 25 ml of 0.1 M K2CO3 (TNBS solution). The OVA solution and the TNBS solution were mixed, and the mixture was stirred overnight at room temperature. The stirred solution was dialyzed against 0.01 M NaHCO3 (manufactured by Nacalai Tesque) through a dialyzer (Spectra/Por Membrane MWCO:10,000, manufactured by Spectrum Medical Industries Inc.). The dialyzate was subjected to protein quantitative determination by BCA Protein Assay Reagent (manufactured by Pierce).
A 1:1 emulsion of complete Freunt adjuvant (CFA: manufactured by Difco Laboratories) and 2 mg/ml of TNP-OVA was subcutaneously injected (sensitized) into the back of a 5-week-old SJL/J mouse (SJL/JorlIcoCrj, male, supplied by Nippon Charles River) at a rate of 0.1 ml/head. […]
The symptom of colitis from the division day to day 5 after the division was observed. The symptom of colitis was scored according to the conditions of stool [normal stool (score:0), loose stool (score:1) and diarrhea (score:2)]. […]
On the final day of the experiment, after euthanasia with a high concentration of CO2, a large bowel was extracted, and the length thereof was measured. […]

[3] = rate of compound-reacted cells for 1% of the cell population, 10 μM compound A

In the case of Clc1c(C2(c3ccc(N4CCOCC4)cc3)CCC2)nn2c1NCCC2 [compound A, 3-chloro-2-[1-(4-morpholin-4-ylphenyl)cyclobutyl]-4,5,6,7-tetrahydropyrazolo[1,5-a]pyrimidine], the “Compound-reacted cells/presence rate, cell surface marker CD3” value (intracellular IFN-γ; [3]) is reported as 1.1, the “Compound-reacted cells/presence rate, cell surface marker CD4” value (intracellular IFN-γ; [3]) is reported as 0.8 and the “Compound-reacted cells/presence rate, cell surface marker CD40” value (intracellular IFN-γ; [3]) is reported as 2.7. The “Compound-reacted cells/presence rate, cell surface marker CD40L in CD3” value (intracellular IFN-γ; [3]) was 0.8, the “Compound-reacted cells/presence rate, cell surface marker CD81 in CD3” value (intracellular IFN-γ; [3]) was 11.1 and the “Compound-reacted cells/presence rate, cell surface marker CD49d” value (intracellular IFN-γ; [3]) was 2.4. For the same compound, the “Compound-reacted cells/presence rate, cell surface marker TCRV β3” value (intracellular IFN-γ; [3]) was 0, the “Compound-reacted cells/presence rate, cell surface marker TCRV γδ” value (intracellular IFN-γ; [3]) was 4.4 and the “Compound-reacted cells (%), cell surface marker CD40L in CD3” value (intracellular IFN-γ; share of intracellular IFN-γ-positive cells reduced by compound A (total reduction = 100), 10 μM, presence rate 3.94%) was 3.3%. For the same compound, the “Compound-reacted cells (%), cell surface marker CD81 in CD3” value (intracellular IFN-γ; share of intracellular IFN-γ-positive cells reduced by compound A (total reduction = 100), 10 μM, presence rate 4.67%) was 51.7%, the “Compound-reacted cells (%), cell surface marker TCRV γδ” value (intracellular IFN-γ; share of intracellular IFN-γ-positive cells reduced by compound A (total reduction = 100), 10 μM, presence rate 5.39%) was 23.8% and the “Compound-reacted cells (%), cell surface marker CD40” value (intracellular IFN-γ; share of intracellular IFN-γ-positive cells reduced by compound A (total reduction = 100), 10 μM, presence rate 9.14%) was 24.3%. For the same compound, the “Compound-reacted cells (%), cell surface marker CD49d” value (intracellular IFN-γ; share of intracellular IFN-γ-positive cells reduced by compound A (total reduction = 100), 10 μM, presence rate 16.4%) was 39.6%, the “Compound-reacted cells (%), cell surface marker CD4” value (intracellular IFN-γ; share of intracellular IFN-γ-positive cells reduced by compound A (total reduction = 100), 10 μM, presence rate 45.7%) was 55.6% and the “Compound-reacted cells (%), cell surface marker CD3” value (intracellular IFN-γ; share of intracellular IFN-γ-positive cells reduced by compound A (total reduction = 100), 10 μM, presence rate 92.1%) was 103.4%. For the same compound, the “Compound-reacted cells (%), cell surface marker TCRV β3” value (intracellular IFN-γ; share of intracellular IFN-γ-positive cells reduced by compound A (total reduction = 100), 10 μM, presence rate 100%) was 0%, the “Gene chip expression signal, CD81 (101495_at)” value [1] was 195.1 and the “Gene chip expression signal, CDw40 (92962_at)” value [1] was 63.9. For the same compound, the “Gene chip expression signal, DAP12 (100397_at)” value [1] was 1144.2, the “Gene chip expression signal, IL-9 (96574_at)” value [1] was 96.4 and the “Gene chip expression signal, IL-10Rβ (99491_at)” value [1] was 1000.9. The “Gene chip expression signal, IL-17 (99349_at)” value [1] was 172.4, the “Gene chip expression signal, Integrin β1 (100124_r_at)” value [1] was 149.4 and the “Gene chip expression signal, Lymphotoxin α (102630_s_at)” value [1] was 220.6. For the same compound, the “Gene chip expression signal, Paired-Ig-like receptor Al (100328_s_at)” value [1] was 791.2, the “Gene chip expression signal, TCRV γ4 (102745_at)” value [1] was 33.1 and the “IFN-γ gene expression (DNA chip analysis)” value [1] was “decreased”. For the same compound, the “induction of the symptom of colitis by cells transferred into normal mice” value (normal mice) was “do not induce the symptom of colitis”.

In the case of O=C(O)c1cc(/N=N/c2ccc(S(=O)(=O)Nc3ccccn3)cc2)ccc1O [SSZ, sulfasalazine], the “Intestinal Length mm(S.D)” value ([2]; large bowel length, day 5 after division, control 87.8 (10.3), Dunnet test * 0.01<p<0.05, ** p<0.01) is reported as 103.1 (8.3)** mm and the “Symptom of colitis (S.D)” value ([2]; stool score 0-2, SJL/J mice, control 1.75 (0.46), Steel test * 0.01<p<0.05) is reported as 0.71 (0.71)*.
